In the assay the test system is EGFP reporter (7×TetO array, basal CMV promoter) in HEK293T reporter cell line. Description: TAD-seq pooled activation screen of 60-aa fragments fused to PYL1. It is filed as cell-based, human. To be noted: for logFC high GFP / logFC medium GFP: log 2 fold change of counts, 100 μM ABA 48 hours; for logFC high GFP: sorted high GFP cells (top 1%) vs unsorted cells; for logFC medium GFP: sorted medium GFP cells (top 2-5%) vs unsorted cells; for Hit medium GFP: medium GFP population (top 2-5%); for Hit high GFP: high GFP population (top 1%). From the text: A fragment library of 75 activators identified in our screen was generated, using 60 amino-acid tiles every 20 aa such that every amino acid was represented by three different fragments (FIG. 3A). The pooled fragment library was fused to PYL1 and recruited to the same GFP reporter used in the original ORFeome screen (FIG. 3A). […] The GFP positive population was sorted into two independent replicates, and fragments in each population were quantified by sequencing. However, in contrast to the ORFeome screen, both high GFP cells (top 1%) and medium GFP cells (top 2-5%) were sorted to potentially identify transactivators of different strength.
Activation domain tiling library generation. A tiling library was generated from 75 proteins identified as activators in the ORFeome screen. Oligonucleotides containing a 5′ adapter […] (SEQ ID NO: 23) and a 3′ adapter […] (SEQ ID NO: 24) to generate a 5′ adapter ([…]) (SEQ ID NO: 11) and a 3′ adapter ([…]) (SEQ ID NO: 12) were synthesized as pooled libraries (Twist Biosciences). 6×50 μl PCR reactions were set up using NEBNext Ultra II Q5 master mix (New England Biolabs) with 5 nM oligos as template. PCR conditions were optimized to find the lowest cycle with a clean visible product at the expected 300 bp length. The thermocycling condition was an initial 30 s at 98° C., then 2 cycles of 98° C. for 10 s, 63° C. for 20 s, and 72° C. for 15 s, followed by 10 more cycles of 98° C. for 10 s and 72° C. for 30 s with a final extension at 72° C. for 5 min. Primers were designed to have Gateway compatible flanking sequences. The resulting libraries were gel extracted by QIAgen gel extraction kit after loading on a 2% TAE gel for 2 hrs at 60V and subsequently cloned into pDONR221 using 20 separate BP reactions in total of 5 μl reactions. The entry plasmid pool was transformed after an overnight reaction into DHSalpha competent E. coli and incubated overnight on LB agar plates containing kanamycin ([…]). Colonies were collected and plasmid DNA purified. 20 LR reactions were then set up as described in the previous section. Each reaction was transformed into NEB 10-beta chemically competent E. coli and grown on LB agar plates containing carbenicillin ([…]) overnight at 30° C. Colonies were counted to ensure >200-fold coverage at each step of cloning, pooled and maxiprepped.
Pooled activation screens. ORFeome and transactivation tiling libraries tagged at the C-terminus with PYL1 were packaged into lentiviral particles. A clonal EGFP reporter cell line stably co-expressing ABI-dCas9 and a gRNA targeting the promoter were transduced at low multiplicity of infection (MOI) with approximately 30% cell survival after puromycin (1 μg/mL) selection. Untransduced cells under the same condition were fully eliminated. Sufficient cells were transduced to maintain >500 fold coverage of the libraries. Recruitment was induced by treating cells with 100 μM abscisic acid (ABA, Sigma) for 48 hours. In parallel, a control batch of cells were treated with equal total volume of DMSO. Cells were then washed in PBS, treated with dissociation buffer (1 mM EDTA, 10 mM KCl, 150 mM NaCl, 5 mM sodium bicarbonate, 0.1% glucose) and resuspended in flow buffer (5 mM EDTA, 25 mM HEPES pH 7, 1% BSA, PBS). High GFP population for each library, top 1% for ORFeome and two bins of top 1% and the next 4% for the TAD screen, were sorted and their genomic DNA directly extracted using QIAmp DNA Blood Mini Kit (QIAGEN).
TAD sequencing. Performed nested PCR on the purified genomic DNA using primers targeting T7 promoter and PYL1 of the backbone vector in the first step creating a ˜470 bp product. Products of the first reaction were then pooled and amplified for an additional 10 steps using primers targeting outside the Gateway sites creating a ˜300 bp product. Libraries were quantified on Qubit dsDNA Broad Range kit and paired-end sequenced on an Illumina MIseq with a custom PAGE-purified R1 sequencing primer. […]

Regarding “JAZF1-1: 60-aa TAD-seq fragment of JAZF1 (MTGIAAASFFSNTCRFGGCGLHFPTLADLIEHIEDNHIDTDPRVLEKQELQQPTYVALSY; listed as Homo sapiens)”, the “logFC high GFP” value is given as 0.2848, the “logFC medium GFP” value is listed as 0.6639 and the “Hit medium GFP” value is “hit”.

As to “KLF6-1: 60-aa TAD-seq fragment of KLF6 (MDVLPMCSIFQELQIVHETGYFSALPSLEEYWQQTCLELERYLQSEPCYVSASEIKFDSQ; listed as Homo sapiens)”, the “Hit high GFP” value is on record as “hit”, the “logFC high GFP” value is given as 5.453, the “logFC medium GFP” value came out at 1.868 and the “Hit medium GFP” value is listed as “hit”.

Consider “KLF7-2: 60-aa TAD-seq fragment of KLF7 (YFSALPSLEETWQQTCLELERYLQTEPRRISETFGEDLDCFLHASPPPCIEESFRRLDPL; listed as Homo sapiens)”, for which the “logFC high GFP” value came to 1.431, the “logFC medium GFP” value was found to be 1.165 and the “Hit medium GFP” value is given as “hit”.

As for “KLF15-6: 60-aa TAD-seq fragment of KLF15 (GPVAWGPWRRAAAPVKGEHFCLPEFPLGDPDDVPRPFQPTLEEIEEFLEENMEPGVKEVP; listed as Homo sapiens)”, the “Hit high GFP” value is given as “hit”, the “logFC high GFP” value is recorded as 2.467, the “logFC medium GFP” value stood at 1.202 and the “Hit medium GFP” value was “hit”.

With “LIN9-25: 60-aa TAD-seq fragment of LIN9 (SRLTAILLQIKCLAEGGDLNSFEFKSLTDSLNDIKSTIDASNISCFQNNVEIHVAHIQSG; listed as Homo sapiens)”, the “Hit high GFP” value is reported as “hit”, the “logFC high GFP” value was 2.094 and the “logFC medium GFP” value came out at 1.08.

“MYCBP-1: 60-aa TAD-seq fragment of MYCBP (MAHYKAADSKREQFRRYLEKSGVLDTLTKVLVALYEEPEKPNSALDFLKHHLGAATPENP; listed as Homo sapiens)”: the “logFC high GFP” value worked out at 1.017, the “logFC medium GFP” value was found to be 0.73 and the “Hit medium GFP” value is “hit”.

For “MYCL1-1: 60-aa TAD-seq fragment of MYCL1 (MDYDSYQHYFYDYDCGEDFYRSTAPSEDIWKKFELVPSPPTSPPWGLGPGAGDPAPGIGP; listed as Homo sapiens)”, the “logFC high GFP” value was 1.137, the “logFC medium GFP” value turned out to be 0.7968 and the “Hit medium GFP” value is on record as “hit”.

For the substance “MYOD1-2: 60-aa TAD-seq fragment of MYOD1 (CSFATTDDFYDDPCFDSPDLRFFEDLDPRLMHVGALLKPEEHSHFPAAVHPAPGAREDEH; listed as Homo sapiens)”, the “logFC high GFP” value was found to be 0.7025, the “logFC medium GFP” value was 0.8486 and the “Hit medium GFP” value is reported as “hit”.

As for “NEUROD1-6: 60-aa TAD-seq fragment of NEUROD1 (LRRMKANARERNRMHGLNAALDNLRKVVPCYSKTQKLSKIETLRLAKNYIWALSEILRSG; listed as Homo sapiens)”, the “logFC high GFP” value stood at 0.6708, the “logFC medium GFP” value is listed as 0.9533 and the “Hit medium GFP” value was “hit”.

For “NEUROG3-5: 60-aa TAD-seq fragment of NEUROG3 (RRSRRKKANDRERNRMHNLNSALDALRGVLPTFPDDAKLTKIETLRFAHNYIWALTQTLR; listed as Homo sapiens)”, the “logFC high GFP” value was 0.06039, the “logFC medium GFP” value is recorded as 0.6713 and the “Hit medium GFP” value was “hit”.

Take “NPAS4-31: 60-aa TAD-seq fragment of NPAS4 (DVPLVPEGLLTPEASPVKQSFFHYSEKEQNEIDRLIQQISQLAQGMDRPFSAEAGTGGLE; listed as Homo sapiens)”: the “logFC high GFP” value was 1.22, the “logFC medium GFP” value was determined as 0.8563 and the “Hit medium GFP” value is listed as “hit”.

For “NPAS4-34: 60-aa TAD-seq fragment of NPAS4 (PLGGLEPLDSNLSLSGAGPPVLSLDLKPWKCQELDFLADPDNMFLEETPVEDIFMDLSTP; listed as Homo sapiens)”, the “logFC high GFP” value was found to be 0.946, the “logFC medium GFP” value was 0.9186 and the “Hit medium GFP” value is “hit”.

With “NPAS4-36: 60-aa TAD-seq fragment of NPAS4 (DNMFLEETPVEDIFMDLSTPDPSEEWGSGDPEAEGPGGAPSPCNNLSPEDHSFLEDLATY; listed as Homo sapiens)”, the “logFC high GFP” value was determined as 0.671, the “logFC medium GFP” value turned out to be 1.209 and the “Hit medium GFP” value was “hit”.

As for “NPAS4-37: 60-aa TAD-seq fragment of NPAS4 (DPSEEWGSGDPEAEGPGGAPSPCNNLSPEDHSFLEDLATYETAFETGVSAFPYDGFTDEL; listed as Homo sapiens)”, the “Hit high GFP” value is reported as “hit”, the “logFC high GFP” value was 1.645 and the “logFC medium GFP” value turned out to be 0.7019.

Consider “NPAS4-39: 60-aa TAD-seq fragment of NPAS4 (CNNLSPEDHSFLEDLATYETAFETGVSAFPYDGFTDELHQLQSQVQDSFHEDGSGGEPTF; listed as Homo sapiens)”, for which the “logFC high GFP” value stood at 0.798, the “logFC medium GFP” value was 0.7684 and the “Hit medium GFP” value is “hit”.

Turning to “RELB-2: 60-aa TAD-seq fragment of RELB (RRVARPPAAPELGALGSPDLSSLSLAVSRSTDELEIIDEYIKENGFGLDGGQPGPGEGLP; listed as Homo sapiens)”, the “Hit high GFP” value is reported as “hit”, the “logFC high GFP” value is given as 2.147, the “logFC medium GFP” value is recorded as 1.711 and the “Hit medium GFP” value is “hit”.

On to “RELB-3: 60-aa TAD-seq fragment of RELB (SSLSLAVSRSTDELEIIDEYIKENGFGLDGGQPGPGEGLPRLVSRGAASLSTVTLGPVAP; listed as Homo sapiens)”, for which the “Hit high GFP” value was “hit”, the “logFC high GFP” value is 1.768, the “logFC medium GFP” value is given as 1.803 and the “Hit medium GFP” value was “hit”.

On to “SERTAD1-10: 60-aa TAD-seq fragment of SERTAD1 (IDTSMYDNELWAPASEGLKPGPEDGPGKEEAPELDEAELDYLMDVLVGTQALERPPGPGR; listed as Homo sapiens)”, for which the “logFC high GFP” value is given as 0.2349, the “logFC medium GFP” value is given as 0.8385 and the “Hit medium GFP” value is listed as “hit”.

As to “SERTAD2-11: 60-aa TAD-seq fragment of SERTAD2 (SEAGTQKLDGPQESRADDSKLMDSLPGNFEITTSTGFLTDLTLDDILFADIDTSMYDFDP; listed as Homo sapiens)”, the “Hit high GFP” value is given as “hit”, the “logFC high GFP” value was 2.48, the “logFC medium GFP” value was found to be 1.822 and the “Hit medium GFP” value is listed as “hit”.

With “SPDYE4-4: 60-aa TAD-seq fragment of SPDYE4 (SEEELEEELELERAPEPEDTWVVETLCGLKMKLKRKRASSVLPEHHEAFNRLLGDPVVQK; listed as Homo sapiens)”, the “Hit high GFP” value was “hit”, the “logFC high GFP” value is on record as 4.316, the “logFC medium GFP” value stood at 1.914 and the “Hit medium GFP” value is recorded as “hit”.

“SS18L2-2: 60-aa TAD-seq fragment of SS18L2 (QETIQRLLEENDQLIRCIVEYQNKGRGNECVQYQHVLHRNLIYLATIADASPTSTSKAME; listed as Homo sapiens)”: the “logFC high GFP” value amounted to 1.012, the “logFC medium GFP” value turned out to be 1.166 and the “Hit medium GFP” value is reported as “hit”.

Source of the values: US20240309360A1, “TRANS-ACTIVATORS AND METHODS AND USE THEREOF” (THE GOVERNING COUNCIL OF THE UNIVERSITY OF TORONTO, priority 2021, published 2024).
